Experimental findings from patent US11716992B2, “5A5B6C tricyclic spirolactone derivative, preparation method therefor and use thereof” (NANKAI UNIVERSITY, priority 2017, dated 2023) are described below.

Data set [1] relates to Apis mellifera ligustica Spin. The settings on record: for Death number after 24 h / Death number after 48 h: per replicate of 10 bees.
For data set [2], the system named is wheat Gibberella zeae. Put plainly: microbe, parasite or virus in culture. In kind it is cell-based. The settings on record: for inhibition at 50 µg/mL: Fusarium graminearum, read-out: fungicidal activity (growth inhibition rate), GZ, 50 μg/mL.
Data set [3] concerns Sclerotinia sclerotiorum. Kind of data set: Fungicidal activity, fungicide growth rate method, SS. In kind it is cell-based. The conditions noted are these: 50 μg/mL; for inhibition at 50 µg/mL: Sclerotinia sclerotiorum.
Data set [4] deals with Rhizoctonia cerealis. Kind of data set: Fungicidal activity, fungicide growth rate method, RC. In kind it is cell-based. The settings on record: 50 μg/mL; for inhibition at 50 µg/mL: Ceratobasidium cereale, read-out: fungicidal activity (growth inhibition rate), RC.
Data set [5] relates to Mythimna separate (Walker). Kind of data set: Insecticidal activity against Mythimna separate (Walker). In kind it is in vivo. The settings on record: 100 μg/mL; for pest or weed control at 100 µg/mL: Mythimna, read-out: insecticidal activity, Mythimna separate (Walker).
Data set [6] deals with Caenorhabditis elegans. Put plainly: Insecticidal activity against Caenorhabditis elegans. In kind it is in vivo. The conditions noted are these: Caenorhabditis elegans, 100 μg/mL; read-out: insecticidal activity, Caenorhabditis elegans.
Data set [7] concerns Helicoverpa armigera (Hübner). Kind of data set: Insecticidal activity against Helicoverpa armigera (Hübner). In kind it is in vivo. The conditions noted are these: 100 μg/mL; for pest or weed control at 100 µg/mL: Helicoverpa armigera, read-out: insecticidal activity, Helicoverpa armigera (Hübner).
Data set [8] has as its system Botrytis cinerea. Kind of data set: Fungicidal activity, fungicide growth rate method, BC. In kind it is cell-based. The conditions noted are these: 50 μg/mL; for inhibition at 50 µg/mL: Botrytis cinerea, read-out: fungicidal activity (growth inhibition rate), BC.
Data set [9] deals with Ostrinia furnacalis. Kind of data set: Insecticidal activity against Ostrinia furnacalis. In kind it is in vivo. The settings on record: 100 μg/mL; for pest or weed control at 100 µg/mL: Ostrinia furnacalis, read-out: insecticidal activity, Ostrinia furnacalis.
For data set [10], the system named is Phytophthora infestans (Mont.) de Bary. Put plainly: microbe, parasite or virus in culture. In kind it is cell-based. The conditions noted are these: for inhibition at 50 µg/mL: Phytophthora infestans, read-out: fungicidal activity (growth inhibition rate), PI, 50 μg/mL.
Data set [11] has as its system Alternaria solani. Put plainly: Fungicidal activity, fungicide growth rate method, AS. In kind it is cell-based. The settings on record: 50 μg/mL; for inhibition at 50 µg/mL: Alternaria solani, read-out: fungicidal activity (growth inhibition rate), AS.
Data set [12] deals with Pellicularia sasakii. Put plainly: Fungicidal activity, fungicide growth rate method, PS. In kind it is cell-based. The settings on record: 50 μg/mL; for inhibition at 50 µg/mL: read-out: fungicidal activity (growth inhibition rate), PS.
For data set [13], the system named is Physalospora piricola. Put plainly: Fungicidal activity, fungicide growth rate method, PP. The conditions noted are these: 50 μg/mL; for inhibition at 50 µg/mL: read-out: fungicidal activity (growth inhibition rate), PP. In kind it is cell-based.
In data set [14] the test system is Cercospora arachidicola. Kind of data set: Fungicidal activity, fungicide growth rate method, CA. In kind it is cell-based. The settings on record: 50 μg/mL; for inhibition at 50 µg/mL: Mycosphaerella arachidis, read-out: fungicidal activity (growth inhibition rate), CA.

Values joined by “and” are separate entries in the source; they are usually repeats but may differ in a detail not shown here. Equal entries are not always repeated. Where two headings read alike, the source gives them in different places.

For `C=CC[C@@H]1C[C@]2(O)CC(O)O[C@@]23C[C@H]2O[C@H]2C[C@H]13` (stereo partly drawn) [Zyj07-64], the “Death rate after 48 h (%)” value in data set [1] (dosage 10.0 μg a.i./bee) is reported as 15.0%; in [1] (dosage 15.5 μg a.i./bee), 10.0%. Besides, the “Death number after 24 h” value in [1] (dosage 10.0 μg a.i./bee) was 0; in data set [1] (dosage 15.5 μg a.i./bee), 0 and 1. Further, the “Death number after 48 h” value is 1 and 2 in data set [1] (dosage 10.0 μg a.i./bee); 0 and 2 in data set [1] (dosage 15.5 μg a.i./bee). Besides, the inhibition at 50 µg/mL in data set [2] is 73%; in data set [3], 45%; in data set [4] it was above 70%; in [8], 41%; in data set [10] it was 17%; in data set [11], above 60%. Also, in [12], the inhibition at 50 µg/mL is above 60%. For the same molecule, the pest or weed control at 100 µg/mL in data set [5] is 20%; in data set [6], 8%; in data set [7], 10%; in [9], 5%.
In the case of `C=C(C)C1CC(=O)[C@@]2(O)CC=CC[C@H]12` (stereo partly drawn) [Zyj06-166], the “Death rate after 48 h (%)” value in data set [1] (dosage 9.93 μg a.i./bee) came to 0%; in [1] (dosage 19.7 μg a.i./bee), 10.0%. Moreover, the “Death number after 24 h” value in data set [1] (dosage 9.93 μg a.i./bee) and in [1] (dosage 19.7 μg a.i./bee) was 0 each time. For the same molecule, the figures for the “Death number after 48 h” value in data set [1] (dosage 9.93 μg a.i./bee) and in data set [1] (dosage 19.7 μg a.i./bee) were 0 and 1, respectively. In addition, the inhibition at 50 µg/mL in [2] came out at 27%; in data set [3] it was 17%; in data set [4], 0%; in data set [13] it was 38%; in data set [8], 36%; in [10] it was 25%. The inhibition at 50 µg/mL in [14] was above 50%; in [12], 18%. Also, the pest or weed control at 100 µg/mL in data set [5] came out at 0%; in data set [6] it was 5%; in data set [7], 0%; in data set [9], 0%.
Turning to `CCOC(=O)C1C(=O)O[C@]23CC=CC[C@@H]2[C@H](OC)C[C@]13O` (stereo partly drawn) [Zyj06-187], the “Death rate after 48 h (%)” value was 0% in data set [1] (dosage 6.08 μg a.i./bee) and 10.0% in data set [1] (dosage 10.6 μg a.i./bee). In addition, the “Death number after 24 h” value in data set [1] (dosage 6.08 μg a.i./bee) and in data set [1] (dosage 10.6 μg a.i./bee) was 0 each time. For the same molecule, the “Death number after 48 h” value in data set [1] (dosage 6.08 μg a.i./bee) came out at 0; in data set [1] (dosage 10.6 μg a.i./bee), 1. For the same molecule, the inhibition at 50 µg/mL was above 50% in data set [2]; 43% in data set [3]; 50% in data set [4]; 34% in data set [8]; 31% in data set [10]; 14% in [11]. Besides, the figures for the inhibition at 50 µg/mL in data set [14] and in data set [12] were above 50% and 0%, respectively. Further, the pest or weed control at 100 µg/mL in data set [5] is 10%; in [6], 8%; in data set [7], 0%; in data set [9] it was 0%.
On to `C=C(C)C1C[C@]2(O)C(C(=O)OCC)C(=O)O[C@@]23CC=CC[C@H]13` (stereo partly drawn) [Zyj06-167], for which the inhibition at 50 µg/mL in [2] was 46%; in data set [3], 9%; in data set [4] it was 59%; in data set [13], 0%; in data set [8] it was 13%; in [10], 0%. In addition, the values for the inhibition at 50 µg/mL in data set [14] and in data set [12] were 26% and 24%, respectively. Moreover, the pest or weed control at 100 µg/mL in data set [6] was found to be 25%.
With `C=CC[C@@H]1C[C@]2(O)CC(=O)O[C@@]23CC=CC[C@H]13` [Zyj06-186], the inhibition at 50 µg/mL in data set [2] was 21%; in data set [3] it was above 50%; in [4] it was 41%; in data set [13], 11%; in [8] it was 49%; in data set [10], 4%. For the same molecule, the inhibition at 50 µg/mL came out at 7% in [11], 46% in data set [14] and 6% in [12]. Moreover, the pest or weed control at 100 µg/mL in data set [5] was 0%; in [6] it was 15%; in [7], 0%; in data set [9], 0%.
On to Ryanodine [reference compound], for which the “fungicidal activity (growth inhibition rate), GZ” value in data set [2] (50 μg/mL) was 20%. Besides, the “fungicidal activity (growth inhibition rate), SS” value in data set [3] is 25%. Besides, the “fungicidal activity (growth inhibition rate), RC” value in [4] is listed as 50%. Moreover, the “insecticidal activity, Mythimna separate (Walker)” value in data set [5] is on record as 100%. For the same molecule, in data set [13], the “fungicidal activity (growth inhibition rate), PP” value is 25%. In addition, the “insecticidal activity, Helicoverpa armigera (Hübner)” value in data set [7] was determined as 100%. The “fungicidal activity (growth inhibition rate), BC” value in [8] was 25%. The “insecticidal activity, Ostrinia furnacalis” value in data set [9] stood at 100%. Also, the “fungicidal activity (growth inhibition rate), PI” value in data set [10] (50 μg/mL) came to 30%. The “fungicidal activity (growth inhibition rate), AS” value in data set [11] was 25%. For the same molecule, the “fungicidal activity (growth inhibition rate), CA” value in [14] worked out at 10%. Besides, in data set [12], the “fungicidal activity (growth inhibition rate), PS” value was determined as 32%.
For `C=CC[C@@H]1C[C@]2(O[Si](C)(C)CC=C)CCO[C@@]23C[C@H](O[Si](C)(C)CC=C)CC[C@H]13` [Zyj07-46], the inhibition at 50 µg/mL in data set [2] was 3%; in data set [3] it was above 50%; in [4], 0%; in data set [13] it was 21%; in [8], above 50%; in [10] it was 21%. In addition, the inhibition at 50 µg/mL in data set [11] was found to be 8%; in data set [14], 14%; in data set [12], 22%. For the same molecule, the pest or weed control at 100 µg/mL came out at 20% in data set [5], 10% in data set [6], 5% in data set [7] and 0% in data set [9].
Turning to `CCOC(=O)C[C@@H]1C[C@]2(O)CC(=O)O[C@@]23CC=CC[C@H]13` [Zyj06-128], the inhibition at 50 µg/mL was 0% in data set [3]; above 70% in data set [4]; 8% in data set [13]; 25% in data set [8]; 7% in data set [10]; 27% in data set [14]. Moreover, the inhibition at 50 µg/mL in [12] turned out to be 20%. The pest or weed control at 100 µg/mL in data set [6] is above 30%.
`C=C(C)[C@@H]1C[C@]2(O)CC(=O)O[C@@]23CC=CC[C@H]13` [Zyj06-175]: the inhibition at 50 µg/mL in data set [2] was determined as 14%; in data set [3] it was 11%; in data set [4] it was 61%; in data set [13], 8%; in [8], 25%; in data set [10] it was 0%. For the same molecule, the results for the inhibition at 50 µg/mL in data set [14] and in data set [12] were 33% and 5%, respectively. The pest or weed control at 100 µg/mL in data set [6] stood at 15%.
